Columns and labels:
[1] = test system: FaDu subcutaneous xenograft; assay: Antitumor effects in FaDu subcutaneous xenograft model in combination with cetuximab in mice; type: in vivo
Description: (§1) A human squamous cell carcinoma of the head and neck (SCCHN) cell line FaDu, which had been cultured in an RPMI-1640 medium containing 10% FBS, and penicillin and streptomycin, was adjusted to a concentration of 5×10^7 cells/mL with Hanks' Balanced Salt Solution to prepare a cell suspension. The cell suspension was inoculated in a volume of 100 μL into a subcutaneous part of a right flank of nude mice, 7 weeks of ages (CAnN.Cg-Foxnlnu/CrlCrlj, female, Charles River Laboratories Japan Inc.).
On the basis of the volumes of tumors obtained on the first day of administration, the mice were grouped such that averages of the tumor volumes were substantially equal among the groups. Each test compound was dissolved in DMSO and a solution was stored at the freezer before use. Immediately before the administration, the stock solution was diluted in saline with 100 μM of hydroxypropyl-β-cyclodextrin. […] Incidentally, the experiment was conducted on groups each consisting of 4 mice.

[2] = test system: FaDu subcutaneous xenograft; assay: Antitumor effects in FaDu subcutaneous xenograft model in mice as monotherapy; type: in vivo
Description: as §1, with “4.8×10^7” for “5×10^7”, “(CAnN.Cg-Foxn1nu/CrlCrlj,” for “(CAnN.Cg-Foxnlnu/CrlCrlj,”
On the basis of the volumes of tumors obtained on the first day of administration, the mice were grouped such that averages of the tumor volumes were substantially equal among the groups. Each test compound was dissolved in DMSO and a solution was stored at the freezer before use. Immediately before the administration, the stock solution was diluted in saline with 100 μM of hydroxypropyl-β-cyclodextrin. Each evaluation sample was intravenously administered at a maximum tolerable dose (MTD). Incidentally, the experiment was conducted on groups each consisting of 4 mice.

[3] = test system: CD31-positive vessel in the FaDu subcutaneous model; assay: Effect on CD31-positive vessel in the FaDu subcutaneous model in mice (Test Example 9); type: in vivo; settings: five days after administration
Description: A human squamous cell carcinoma of the head and neck (SCCHN) cell line FaDu, which had been cultured in an RPMI-1640 medium containing 10% FBS, and penicillin and streptomycin, was adjusted to a concentration of 5×10^7 cells/mL with PBS to prepare a cell suspension. The cell suspension was inoculated in a volume of 100 μL into a subcutaneous part of a right flank of nude mice, 7 weeks of ages (CAnN.Cg-Foxnlnu/CrlCrlj, female, Charles River Laboratories Japan, Inc.). Ten days after cell inoculation, a test compound in saline with 100 μM of hydroxypropyl-β-cyclodextrin was intravenously administered at doses from ½ MTD to MTD. The experiment was conducted on groups each consisting of 3 mice. Five days after administration, tumor samples were collected and fixed with IHC Zinc Fixative (BD Pharmingen) at 4° C. for 24 hr. Paraffin-embedded tissues were sectioned (3 μm), mounted on positively charged slides, and air-dried. Immunohistochemical staining of CD31 was conducted using Ventana autostainer model Discover XT (Roche Diagnostics) according to the manufacture's protocol. Sections were deparaffinized, conditioned and the antigens were retrieved with CC1 (Ventana Medical Systems). Slides were blocked with Blocker A and Blocker B (Endogenous biotin blocking kit, Roche Diagnostics). Rat anti-mouse IgG CD31 antibody (Dianova GmbH) was applied at 2 μg/mL. […]
Immunostained slides were scanned using Vectra 2 Automated Slide Imaging System (Perkin Elmer Inc.). The number of blood vessels in the whole tumor was quantified by counting the CD31-positive objects using inForm 2 software (PerkinElmer Inc.) Area of the tumor region was measured by assessing the hematoxylin-staining area using inform 2 software (PerkinElmer Inc.) The number of blood vessels was normalized by the area of the tumor region. An increase rate of the blood vessel number of the test compound-dosing group was calculated with the below formula, and shown in Table 9. […]

[4] = test system: human urothelial cancer cell line SW780; assay: SW780 growth inhibition assay; type: cell-based; settings: 3 days incubation, CellTiter-Glo
Description: In this assay, the growth inhibitory activities of test compounds in the human urothelial cancer cell line SW780 were measured. SW780 cells were maintained in RPMI-1640 medium containing 10% FBS, penicillin, and streptomycin in a 5% CO2 incubator (37° C.). To each well of a 96-well plate (Becton, Dickinson and Company, 353219), 100 μL of a SW780 cell suspension adjusted to a concentration of 3×10^4 cells/mL with the culture medium was added, and the cells were incubated overnight in a 5% CO2 incubator (37° C.). On the next day, 100 μL of Compound (1) or Halichondrin B in three-fold dilution series suspended in the culture medium was added to each well, and the resultant was incubated for 3 days in a 5% CO2 incubator (37° C.). Then, cell viability was determined by CellTiter-Glo® Luminescent Cell Viability Assay (Promega) with EnVision 2103 Multilabel Reader (Perkin-Elmer, Wellesley, Mass.). Value of the wells containing cells without adding the test compounds was defined as 100% and the value of the wells containing no cells was defined as 0%. The concentrations of the test compounds necessary for inhibiting the cell growth by 50% (i.e., an IC50 value) were calculated, and are shown in Table 16.

C=C1C[C@@H]2CC[C@@]34C[C@H]5O[C@H]6[C@@H](O3)[C@H]3O[C@H](CC[C@@H]3O[C@H]6C5O4)CC(=O)O[C@@H]3[C@@H](C)[C@@H]4O[C@@H]5C[C@]6(C[C@@H]7O[C@]8(C[C@H](C)[C@@H]9O[C@H](CN)[C@H](O)C[C@@H]9O8)C[C@H](C)[C@@H]7O6)O[C@@H]5C[C@@H]4O[C@H]3C[C@H]3O[C@@H](CC[C@@H]1O2)C[C@@H](C)C3=C [Compound (1)]
Tumor Regression on day 35 (%) ([1]; 0.05 mg/kg intravenously + cetuximab 20 mg/kg): 38%
Tumor Regression on day 35 (%) ([1]; 0.1 mg/kg intravenously + cetuximab 20 mg/kg): 60%
Tumor Regression (%) ([2]; 0.2 mg/kg intravenously (MTD)): 43%
Increase rate of blood vessel number (%) ([3]; 0.10 mg/kg intravenously): 69%
IC50 [4]: 0.017 nM

C=C1C[C@@H]2CC[C@@]34C[C@H]5O[C@H]6[C@@H](O3)[C@H]3O[C@H](CC[C@@H]3O[C@H]6[C@H]5O4)CC(=O)O[C@@H]3[C@@H](C)[C@@H]4O[C@@H]5C[C@]6(C[C@@H]7O[C@]8(C[C@H](C)[C@@H]9O[C@H]([C@@H](O)C[C@@H](O)CO)C[C@@H]9O8)C[C@H](C)[C@@H]7O6)O[C@@H]5C[C@@H]4O[C@H]3C[C@H]3O[C@@H](CC[C@@H]1O2)C[C@@H](C)C3=C [Halichondrin B, reference compound]
Tumor Regression on day 35 (%) ([1]; 0.0125 mg/kg intravenously + cetuximab 20 mg/kg): −38%
Tumor Regression on day 35 (%) ([1]; 0.025 mg/kg intravenously + cetuximab 20 mg/kg): −2%
Tumor Regression (%) ([2]; 0.05 mg/kg intravenously (MTD)): 0%
Increase rate of blood vessel number (%) ([3]; 0.025 mg/kg intravenously): 31%
Increase rate of blood vessel number (%) ([3]; 0.05 mg/kg intravenously): 39%
IC50 [4]: 0.032 nM
